Tested on: P. falciparum 3D7 growth, pLDH absorbance
Test: blood-stage malaria parasite growth potency – strain 3D7, dose response (AID 2305)

With `CCN(Cc1ccc(-c2ccc(C(F)(F)F)cc2)cc1)C(=O)Cn1c(SCc2cccc(F)c2F)cc(=O)c2cc(CN3CCCCC3)ccc21` the IC50 was 800 nM.
Work on `O=C(/C=C/c1ccc(Cl)c(Cl)c1)NC1CCC(CN2CCC(c3cc4ccccc4[nH]3)CC2)CC1` (stereo not drawn) yielded an IC50 of 990 nM.
Compound `COC(=O)c1cccc(NC(=O)NC2CCN(c3ccnc(Nc4cc(OC)c(OC)c(OC)c4)n3)C2)c1` (stereo not drawn) has an IC50 of 510 nM.
In the case of `N#Cc1ccc(CN2CCCN(c3ccc(NC(=O)c4ccc(F)cc4)cc3)CC2)cc1`, the IC50 is reported as 1280 nM.
For `COc1cccc(NC(=O)[C@H](C(C)C)n2c(=O)[nH]c3ccccc3c2=O)c1`, the IC50 was 270 nM.
`COCC(=O)N(Cc1ccccc1-c1ccc(CNCCc2ccccc2)cc1)C1CCN(Cc2ccccc2)CC1` was tested, and the IC50 was 890 nM.
For `CO/C(=C\C=C\c1cc2cc(Cl)c(Cl)cc2[nH]1)C(=O)NC1C[C@H]2CC[C@@H](C1)N2C` (stereo partly drawn), the IC50 was 1030 nM.
Compound `NC(=O)c1cccc(CNCc2ccc(-c3cccc(-c4nc5ccccc5[nH]4)c3)cc2)c1` has an IC50 of 590 nM.
With `O=C(NC1CCCC1)c1ccc(N2CCC(NCc3cccc(C(F)(F)F)c3)CC2)cc1` the IC50 was 1330 nM.
For `N#Cc1ccc2[nH]cc(C(=O)CCCCCN(Cc3ccccc3)Cc3ccccc3)c2c1`, the IC50 was 790 nM.
`CCCCCN1CCCC(NS(=O)(=O)c2cccc(C(=O)Nc3cccc(C(F)(F)F)c3)c2)C1` (stereo not drawn) showed an IC50 of 1070 nM.
`Cc1cc(N[C@@H](Cc2ccccc2)C(=O)NCCc2ccccc2)nc(NCc2ccccc2C)n1` gave an IC50 of 880 nM.
`Cc1cccc2[nH]c(-c3ccc(-c4ccc(NC(=O)Nc5ccc(F)c(F)c5F)cc4)cc3)nc12` showed an IC50 of 270 nM.
`CCN1CCN(c2cc(C)c3cc(NC(=O)c4cccc([N+](=O)[O-])c4)ccc3n2)CC1` showed an IC50 of 520 nM.
`O=S(=O)(NC1CCCCN(Cc2ccccc2O)C1)c1ccc(C(F)(F)F)cc1` (stereo not drawn) showed an IC50 of 1300 nM.
`CC(=O)N(Cc1ccccc1-c1cccc(CNCc2ccc3c(c2)OCO3)c1)C1CCN(Cc2ccccc2)CC1` showed an IC50 of 1050 nM.
`CCC[C@@H]([C@@H](CC1CCC(C)CC1)C(=O)N[C@@H](CCCCNC(=O)c1ccccn1)C(=O)Nc1nccs1)N(O)C=O` (stereo partly drawn) was tested, and the IC50 was 50 nM.
`Cc1cc2c(cc1C(F)(F)F)N(C(=O)Nc1cc(C(=O)NCCN(C)C)cc(C(F)(F)F)c1)CC2` gave an IC50 of 730 nM.
For `COc1cc(C(=O)Nc2nc3ccccc3[nH]2)ccc1OCC(=O)Nc1cccc(C(F)(F)F)c1`, the IC50 was 740 nM.
With `CNC(=S)NN=C(C)c1ccccn1` the IC50 was 270 nM.
Compound `CCCC1N=C(N)N=C(N)N1c1ccc(C)cc1` (stereo not drawn) has an IC50 of 100 nM.
`COc1ccc2sc(CNCCCNc3cc(=O)c4ccccc4[nH]3)c(Cl)c2c1` gave an IC50 of 1070 nM.
In the case of `COc1ccc(C2CC(c3cccs3)=NN2C(=O)c2ccccc2)cc1OC` (stereo not drawn), the IC50 is reported as 660 nM.
`c1ccc(-c2cccc(-c3ccccn3)n2)nc1` was tested, and the IC50 was 900 nM.
With `CCCNCc1ccc(-c2ccc(CN(CCOC)C(=O)c3ccccc3)cc2)nc1` the IC50 was 880 nM.
`O=c1cc(NCCC2CC=CCN2Cc2ccc(Cl)c(Cl)c2)[nH]c2ccccc12` (stereo not drawn) gave an IC50 of 1730 nM.
`Cc1nc2ccc(Nc3nccc(-c4c(-c5cccc(NC(=O)c6c(F)cccc6F)c5)nn5ccccc45)n3)cc2nc1C` was tested, and the IC50 was 1070 nM.
With `Cc1oc(-c2ccccc2)nc1CCOc1ccc(C[C@H](Nc2ccccc2C(=O)c2ccccc2)C(=O)NCc2ccccn2)cc1` the IC50 was 880 nM.
Work on `CN1CCCN(c2ccnc3cc4c(cc23)N(C(=O)c2ccccc2Cl)CC4)CC1` yielded an IC50 of 1180 nM.
`CC[C@H]1CN2CC[C@@H]1C[C@H]2[C@H](O)c1cc(N2CCC(O)(c3ccccc3)CC2)nc2ccc(OC)cc12` was tested, and the IC50 was 90 nM.
`CCC(C)NS(=O)(=O)c1ccc2nc(Nc3ccc(C)cc3)n(C3CCCCC3)c2c1` (stereo not drawn) was tested, and the IC50 was 460 nM.
`Cc1ccc(-n2cc(CNCCc3ncc(C)[nH]3)c(-c3ccc(F)cc3)n2)cc1` gave an IC50 of 1510 nM.
Compound `CN(C)CCCc1cc(NC(=O)Nc2cccc(Cl)c2Cl)ccc1I` has an IC50 of 540 nM.
In the case of `COc1ccc(NC(=O)Nc2ccc(-c3cccc(-c4nc5ccccc5[nH]4)c3)cc2)cc1`, the IC50 is reported as 760 nM.
For `CC(=O)Nc1nc(C(=O)Nc2cccc(-c3cccc(-c4nc5ccccc5[nH]4)c3)c2)cs1`, the IC50 was 170 nM.
For `COc1ccc(CNc2nc(NCc3ccc(C(F)(F)F)cc3)c3cc(OC)c(OC)cc3n2)cc1OC`, the IC50 was 210 nM.
Work on `CC(C)(CNCc1ccc(Cl)c(Cl)c1)c1nc(-c2ccc(Cl)c(O)c2)c(-c2ccncc2)[nH]1` yielded an IC50 of 760 nM.
Work on `Cc1cc(-c2ccc3c(c2)CCN(CCCOc2ccc4c(c2)CCN4C(=O)/C=C/c2ccccc2Cl)CC3)no1` yielded an IC50 of 1230 nM.
Work on `CN1CCN(CCCN(Cc2csc(-c3ccc(CNCc4ccccc4)cc3)n2)S(=O)(=O)c2ccccc2Cl)CC1` yielded an IC50 of 880 nM.
With `N=C(N)CCN(Cc1ccccc1)c1ccc(Cl)cc1` the IC50 was 260 nM.
`COc1ccc(Nc2nc(NN=Cc3ccc(-c4ccc([N+](=O)[O-])cc4)o3)nc(Nc3ccccc3)n2)cc1` showed an IC50 of 760 nM.
Compound `CCCNCCc1ccc(NS(=O)(=O)c2cccc(-c3ccc(Cl)cc3)c2)cc1` has an IC50 of 970 nM.
In the case of `CC1(C)S(=O)(=O)CC(O)CS1(=O)=O`, the IC50 is reported as 470 nM.
In the case of `O=C(Nc1ccc(C(F)(F)F)cc1)c1ccc(S(=O)(=O)NC2CCN(CC3CCCCC3)CC2)cc1`, the IC50 is reported as 730 nM.
`COc1cc(NC(=O)c2cc([N+](=O)[O-])ccc2NC(=O)CNC2CCCCC2C)cc(OC)c1` (stereo not drawn) gave an IC50 of 1730 nM.
Work on `Cc1[nH]c(C)c(-c2cccc(Oc3ccc(Cl)cc3)c2)c(=O)c1Br` yielded an IC50 of 70 nM.
Work on `O=C(Nc1cccc(CN2CCN(C(=O)c3cccc(Cl)c3)CC2)c1)c1cccs1` yielded an IC50 of 180 nM.
Compound `O=C1COC2(CN1C1CCN(Cc3ccc(O)cc3Cl)C1)c1ccccc1-c1ccccc12` (stereo not drawn) has an IC50 of 1330 nM.
`O=C(Nc1ccc(S(=O)(=O)N2CCCC2)cc1)c1cc(-c2cccnc2)nc2ccc(Cl)cc12` was tested, and the IC50 was 300 nM.
`N#CCCN1CCN(Cc2cccc(-c3ccc(-c4nc5ccccc5[nH]4)s3)c2)CC1` showed an IC50 of 760 nM.
`CCOc1ccc(-c2nc(NC(=O)CS(=O)(=O)c3ccccc3)sc2C)cc1` was tested, and the IC50 was 510 nM.
Compound `N=C(N)c1ccc(NC(=O)Cc2nc3ccc(C(=N)N)cc3[nH]2)cc1` has an IC50 of 1370 nM.
In the case of `NC(=O)Nc1ccc2cn[nH]c2c1`, the IC50 is reported as 210 nM.
In the case of `Nc1ncc(-c2ccc(NC(=O)Nc3cc(C(F)(F)F)ccc3F)cc2)c(N)n1`, the IC50 is reported as 720 nM.
`CS(=O)(=O)N(c1ccc(F)cc1)c1cc(C(=O)N[C@@H](Cc2ccccc2)[C@H](O)CNCc2cccc(C(F)(F)F)c2)cc(N2CCCC2=O)c1` showed an IC50 of 1350 nM.
`CN1C(=O)C(=O)N(CCCCCON=C(N)N)C1=S` showed an IC50 of 200 nM.
With `CC(=O)Nc1ccc(COc2ccc(Nc3ccnc4cc(-c5ccccn5)ccc34)cc2)cc1` the IC50 was 200 nM.
Work on `CC(C)Cn1cc(C2CCN(CCN3CCC(CNC(=O)c4ccc(NC(=O)c5cc(Cl)cc(Cl)c5)cc4)CC3)CC2)c2ccccc21` yielded an IC50 of 690 nM.
In the case of `COC(=O)c1ccc(C2OC3(C(=O)c4ccccc4C3=O)C(OC)=C2Cl)cc1C(C)=O` (stereo not drawn), the IC50 is reported as 550 nM.
`Cc1[nH]c(C)c(-c2ccc(Cl)cc2)c(=O)c1I` showed an IC50 of 670 nM.
Compound `CCNc1cc(C(=O)N[C@@H](Cc2ccccc2)[C@H](O)CN[C@H](C)C(C)(C)C)cc(N2CCCCS2(=O)=O)c1` has an IC50 of 820 nM.
With `CCCCN(CCCC)CCNC(=O)c1cccc(NC(=O)N2CCc3cc(SC)c(C(F)(F)F)cc32)c1` the IC50 was 810 nM.
Work on `Oc1cccc(C2CCCN(CCc3c[nH]c4ccccc34)C2)c1` (stereo not drawn) yielded an IC50 of 860 nM.
With `COc1ccc(CSC2CCCCC23NC(=S)NC3=S)cc1` (stereo not drawn) the IC50 was 850 nM.
`COc1ccc(CC(C)NCC(O)c2cccc(C(F)(F)F)c2)cc1F` (stereo not drawn) gave an IC50 of 830 nM.
`CC(=O)Nc1ccccc1OCc1cc2cc(C(=O)N3CCC(N4C(=O)OCc5ccccc54)CC3)ccc2o1` showed an IC50 of 240 nM.
Compound `Cc1cc(O)c(CN(C)Cc2ccc3c(c2)OCCO3)cc1C(C)C` has an IC50 of 670 nM.
Work on `CC1CC(C)CN(S(=O)(=O)c2cc(C(=O)Nc3cccc([N+](=O)[O-])c3)ccc2Br)C1` (stereo not drawn) yielded an IC50 of 900 nM.

Source: PubChem BioAssay AID2305 (GlaxoSmithKline (GSK), 2010)
